From patent US20260250312A1, “ANTIBACTERIAL COMPOUNDS ELIMINATING DORMANT BACTERIAL CELLS” (UNIVERSITÉ D'AIX-MARSEILLE, priority 2022, published 2026) come the findings set out here.

In data set [1] the test system is Pseudomonas aeruginosa (ATCC27853). Put plainly: Microdilution MIC assay (CLSI-based), P. aeruginosa. In kind it is cell-based. To be noted: Pseudomonas aeruginosa, ATCC27853, 20 h, 20 hours incubation at 35-37° C., MHB; read-out: Minimum inhibitory concentration P. aeruginosa ATCC27853. In short, it runs like this:
(§1)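 Broth microdilution per modified CLSI guidelines in Mueller Hinton broth, 200 μL, inoculum ca. 5×10^5 CFU/mL; compounds tested as salts, twofold dilutions from 0.2 mg/mL, in triplicate. MIC determined from OD at 620 nm after incubation.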

Data set [2] relates to Escherichia coli (E. coli) persister cells. Put plainly: Anti-persister activity test, persister cells. In kind it is cell-based. To be noted: for anti-persister activity (in words): E. coli persister cells, Table 8 conditions; for viability at 62.5 µM: read-out: Persister cell survival rate 96 h, concentration used 62.5 μM, 4 hours treatment. On the procedure:
(§2) Anti-persister activity test: Escherichia coli (E. coli) persister cells were generated and isolated as described by MARQUES, C. N. H. et al. (Applied and Environmental Microbiology 2014, Vol. 80, No. 22, pp. 6976-6991). E. coli persister cells were compared to E. coli non-persister cells. 1 mL persister or non-persister bacteria culture was added in a 1.5 mL microtube with each of the compounds to be tested or ciprofloxacin as a […], and incubated at 37° C. with 160 rpm shaking for 4 hours. After 4 hours treatment with the compounds, the microtubes were centrifuged at 3,500g for 5 minutes and the pellets were resuspended in 1 mL of fresh drug free RM broth (10 g/L M9 salt, 2% casamino acids, 1 mM MgCl2, 1% glycerol). Resuspended bacteria were then plated over LB agar plates and incubated at 37° C. Bacterial colonies were enumerated after 24, 48 and 96 hours to estimate the survival rate.

The test system of data set [3] is Staphylococcus aureus (ATCC25923). Put plainly: Microdilution MIC assay (CLSI-based), S. aureus. To be noted: Staphylococcus aureus, ATCC25923, 20 h, 20 hours incubation at 35-37° C., MHB; read-out: Minimum inhibitory concentration S. aureus ATCC25923. In kind it is cell-based. In short, it runs like this:
as §1

Data set [4] concerns E. coli non-persister cells. Put plainly: Anti-persister activity test, non-persister cells. In kind it is cell-based, Escherichia coli. To be noted: Escherichia coli, 4 h; for viability at 62.5 µM: read-out: Non-persister cell survival rate 96 h, concentration used 62.5 μM, 4 hours treatment. On the procedure: as §2
Data set [5] relates to Escherichia coli (ATCC28922). Kind of data set: Microdilution MIC assay (CLSI-based), E. coli. In kind it is cell-based. To be noted: Escherichia coli, ATCC28922, 20 h, 20 hours incubation at 35-37° C., MHB; read-out: Minimum inhibitory concentration E. coli ATCC28922. Put shortly: as §1
Data set [6] has as its system Enterococcus faecalis (ATCC29212). Put plainly: Microdilution MIC assay (CLSI-based), E. faecalis. It counts as cell-based. To be noted: Enterococcus faecalis, ATCC29212, 20 h, 20 hours incubation at 35-37° C., MHB; read-out: Minimum inhibitory concentration E. faecalis ATCC29212. In short, it runs like this: as §1
A further data set has as its system CHO-K1 cells. Kind of data set: WST1 cytotoxicity test. To be noted: for IC50 / pIC50: Cricetulus griseus; for IC50: CHO-K1, 24 h, WST1, 24 hours at 37° C., read-out: IC50 CHO; for pIC50: CHO-K1, WST1, as printed in Table 8, read-out: Toxicity IC50 CHO. In kind it is cell-based, Chinese hamster. In short, it runs like this: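 CHO-K1 cells pre-cultured 24 h, then exposed 24 h at 37 °C to increasing compound concentrations. Viability read as WST-1 formazan absorbance at 450 nm after 20 min; dose-response fitted by nonlinear regression.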

pIC50: −log10 of the molar value. Values joined by “and” are separate entries in the source; they are usually repeats but may differ in a detail not shown here. Equal entries are not always repeated. Where two headings read alike, the source gives them in different places.

In the case of `COC(=O)[C@H](NC(=O)CC[C@@H](C)[C@H]1CCC2C3CC[C@@H]4C[C@@H](NCCCNCCCCNCCCN)CC[C@]4(C)C3C[C@H](O)[C@@]21C)C(C)C` (stereo partly drawn) [Compound S052, methyl ((4R)-4-((3S,5R,10S,12S,13R,17R)-3-((3-((4-((3-aminopropyl)amino)butyl)amino)propyl)amino)-12-hydroxy-10,13-dimethylhexadecahydro-1H-cyclopenta[a]phenanthren-17-yl)pentanoyl)-D-valinate], the MIC in data set [1] is 12.5 µM and 8 µg/mL; in data set [3], 3.12 µM and 2 µg/mL; in data set [5] it was 12.5 µM and 8 µg/mL; in data set [6] it was 25 µM and 16 µg/mL. The “anti-persister activity (in words)” value in data set [2] is “both anti-persister and anti-bacterial activities”. The viability at 62.5 µM is 0% in data set [2] (Escherichia coli, 4 h) and 0% in data set [4]. Moreover, the “toxicity results (in words)” value with CHO-K1 cells is “good toxicity results”. Further, the IC50 in the data set on CHO-K1 cells was 50 µM and 34 µg/mL. Besides, the pIC50 in the data set with CHO-K1 cells is 4.30.

Take `COC(=O)[C@@H](Cc1ccccc1)NC(=O)CC[C@@H](C)[C@H]1CCC2C3C(CC[C@@]21C)[C@@]1(C)CC[C@H](NCCNCCNCCN)C[C@H]1C[C@H]3O` (stereo partly drawn) [Compound S010, methyl ((4R)-4-((3S,5S,7R,10S,13R,17R)-3-((2-((2-((2-aminoethyl)amino)ethyl)amino)ethyl)amino)-7-hydroxy-10,13-dimethylhexadecahydro-1H-cyclopenta[a]phenanthren-17-yl)pentanoyl)-D-phenylalaninate]: the MIC was 50 µM and 32 µg/mL in data set [1]; 12.5 µM and 8 µg/mL in data set [3]; 50 µM and 32 µg/mL in data set [5]; 12.5 µM and 8 µg/mL in data set [6]. For the same compound, the “anti-persister activity (in words)” value in data set [2] is “very potent anti-persister activity”. For the same compound, the viability at 250 µM turned out to be 0.8% in data set [2] (Escherichia coli, 4 h, read-out: Persister cell survival rate 96 h, concentration used 250 μM, 4 hours treatment) and 4.2% in data set [4] (read-out: Non-persister cell survival rate 96 h, concentration used 250 μM, 4 hours treatment). The “toxicity results (in words)” value with CHO-K1 cells is listed as “good toxicity results”. Also, the 50% inhibitory concentration (IC50) in the data set on CHO-K1 cells was 114 µM and 77.4 µg/mL. In the data set with CHO-K1 cells, the pIC50 was 3.94.

`COC(=O)[C@H]1CCCN1C(=O)CC[C@@H](C)[C@H]1CCC2C3C(CC[C@@]21C)[C@@]1(C)CC[C@H](NCCCNCCNCCCN)C[C@H]1C[C@H]3O` (stereo partly drawn) [Compound S046, methyl ((4R)-4-((3S,5S,7R,10S,13R,17R)-3-((3-((2-((3-aminopropyl)amino)ethyl)amino)propyl)amino)-7-hydroxy-10,13-dimethylhexadecahydro-1H-cyclopenta[a]phenanthren-17-yl)pentanoyl)-D-prolinate]: the MIC is 12.5 µM and 8 µg/mL in data set [1]; 12.5 µM and 8 µg/mL in data set [3]; 12.5 µM and 8 µg/mL in data set [5]; 6.25 µM and 4 µg/mL in data set [6]. Also, in data set [2], the “anti-persister activity (in words)” value is “very potent anti-persister activity”. The viability at 125 µM turned out to be 0% in data set [2] (Escherichia coli, 4 h, read-out: Persister cell survival rate 96 h, concentration used 125 μM, 4 hours treatment) and 0.3% in data set [4] (read-out: Non-persister cell survival rate 96 h, concentration used 125 μM, 4 hours treatment). For the same compound, the half-inhibitory concentration (IC50) with CHO-K1 cells was 9.53 µM and 6.29 µg/mL. For the same compound, the pIC50 in the data set with CHO-K1 cells is 5.02.

For `COC(=O)[C@H](Cc1ccc(O)cc1)NC(=O)CC[C@@H](C)[C@H]1CCC2C3C(CC[C@@]21C)[C@@]1(C)CC[C@H](NCCCNCCCCNCCCN)C[C@H]1C[C@H]3O` (stereo partly drawn) [Compound S039, methyl ((4R)-4-((3S,5S,7R,10S,13R,17R)-3-((3-((4-((3-aminopropyl)amino)butyl)amino)propyl)amino)-7-hydroxy-10,13-dimethylhexadecahydro-1H-cyclopenta[a]phenanthren-17-yl)pentanoyl)-L-tyrosinate], the MIC in data set [1] was 6.25 µM and 4 µg/mL; in data set [3], 6.25 µM and 4 µg/mL; in data set [5], 6.25 µM and 4 µg/mL; in data set [6], 12.5 µM and 8 µg/mL. In data set [2], the “anti-persister activity (in words)” value is recorded as “very potent anti-persister activity”. Besides, the viability at 62.5 µM in data set [2] (Escherichia coli, 4 h) was 0%; in data set [4], 2.7%. For the same compound, the “toxicity results (in words)” value in the data set with CHO-K1 cells is on record as “good toxicity results”. For the same compound, in the data set with CHO-K1 cells, the IC50 is 60 µM and 45.3 µg/mL. The pIC50 in the data set on CHO-K1 cells is 4.22.
